According to patent US11198673B2, “Therapeutic compounds and compositions” (eXIthera Pharmaceuticals, Inc., priority 2014, dated 2021):

How the values were obtained:
human Factor XIa = molecular target: T1, human Factor XIa (Homo sapiens, UniProt P03951); assay: Factor XIa enzyme inhibition assay (IC50, purified enzyme); type: biochemical; settings: purified enzyme 0.25 nM, substrate 50 μM; read-out: Potency hFXIa IC50
T1 construct: Enzyme: Factor XIa; 0.25 μM in 50% glycerol (20 μg/mL)
Experimental: (§1) • Assay buffer: 20 mM Hepes, pH 7.4; 150 mM NaCl; 0.02% Tween 20 • Compounds: 10 mM stocks in DMSO • Substrate: 20 mM Glp-Pro-Arg-AMC, 25 mg/2.3 mL H2O (store at +4° C.) [Factor XIa, thrombin, and trypsin] • 20 mM Pro-Phe-Arg-AMC (Bachem I-1295), 25 mg/2.2 mL H2O (store at +4° C.) [Factor Xa] • Enzyme: Factor XIa; 0.25 μM in 50% glycerol (20 μg/mL) • Trypsin; 0.2 μM in 50% glycerol (4.8 μg/mL) • Thrombin; 0.2 μM in 50% glycerol (7.34 μg/mL) • Factor Xa; 0.2 μM in 50% glycerol (9.2 μg/mL) • These stocks are aliquoted ([…]) and stored at −20° C. Methods: • 1. Dilute the substrate to 100 μM in assay buffer (30 μL/6 mL). The enzyme is diluted to 0.5 nM just prior to use (12 μL/6 mL for Factor XIa; 15 μL/6 mL for all of the rest.) • 2. Pipette 50 μL of substrate into each well of the 96 well (12×8) microtiter plate. (Column 1 is used as the 100% activity control and receives no compound, and Column 12 is the blank and receives no enzyme.) Add an additional 46 μL to column 2. • 3. Pipette 4 μL of each compound into the appropriate well in column 2 of the plate (unknowns assayed in triplicate, standard assayed in duplicate). The final compound concentration will be 1/50th of the stock. • 4. Serially two-fold dilute the compound by mixing the sample in column 2, removing 50 μL to the next well (column 3), mix and remove to column 4, etc. until column 11. After mixing column 11, remove 50 μL and discard. • 5. Pipette 50 μL of buffer into column 12. Initiate the reaction by adding 50 μL of enzyme solution to each well of columns 1-11 as rapidly as possible. • 6. Read the plate in a spectrophotometer (SpectraMax) at 30° C., wherein each well is measured every 60 s for 30 min. For Factor Xa assays, each well is measured every 1 min for a total of 60 min. • 7. For Factor XIa assays, the compounds are assayed, in duplicate, at 3 different starting concentrations, 20, 2, and 0.2 μM; 1:10, 1:100, and 1:1000 dil'n of 10 mM stock. All data sets are combined for graphing and data fitting. • 8. Data can be used both for estimation of IC50 and for estimation of Kon.
Potential inhibitors of Factor XIa were evaluated using the following assay.
S-2366, pyroGlu-Pro-Arg-7-methylaminocourin (AMC), available from CPC Scientific, Inc., is based on the substrate pyro-Glu-Pro-Arg-pNA, available from Diapharma Group, Inc. (Columbus, Ohio), where the p-nitroanaline group is replaced with 7-methylaminocoumarin (AMC).
The final concentration of the substrate in the assay was 50 μM, and the final concentration of the enzyme was 0.25 nM. Inhibitors were tested by serial dilution over an appropriate range to yield a dose response curve for determination of the inhibitors' IC50 value. The assay mixture was read every minute for 30 minutes in order to generate progress curves. The plates were read in a Spectramax m5 Multimode Plate Reader (Molecular Devices LLC, Sunnyvale, Calif.). Dose response curves were fit to Equation 1 below in which A is the maximum inhibition, B is the minimum inhibition, C is the IC50, and D is the Hill coefficient. [(A−B)/(1+(X/C)^D)]+B (Equation 1)

[1] = β-Lactam stability in rat plasma; type: in vitro ADME; settings: normal rat plasma, room temperature; read-out: Rat Plasma Stability (T1/2; min)
Experimental: Normal rat plasma, stored at −80° C.
• 1. Place 6 μL of each compound into 0.5 mL microcentrifuge tubes or 96-well U-bottom, polypropylene microtiter plate • 2. Place 40 μL of acetonitrile (AcN) into 0.5 mL microcentrifuge tubes labeled 1-9 • 3. Add 114 μL of plasma to each compound • 4. Sample 10 μL of compound/plasma into AcN at 2, 10, 20, 30, 60, 90, 120, 240, and 480 min of incubation at room temperature • 5. Mix each time point after adding sample and place on ice. • 6. Centrifuge time points (12,000 rpm, 3 min), remove 15 μL of the supernatant and mix with 15 μL 0.1% TFA in a V-bottom microtiter plate. • 7. Place microtiter plate in autosampler of HPLC and analyze on Restek Pinnacle C18 column (2.1×100 mm). • 8. Generate extracted ion chromatogram for parent compound and parent compound+18 (H2O). Integrate extracted ion chromatograms (EIC) and plot % total peak area for parent and adduct versus time. Fit to a model of single phase exponential decay [Y=A0*exp(−k*x)+C]. T½ is equal to ln(2)/k.

Factor Xa = molecular target: T2, Factor Xa (Homo sapiens, UniProt P00742); assay: Dose response assay for protease inhibitors: Factor Xa (FXIa fold selectivity); type: biochemical; settings: fold selectivity for FXIa over Factor Xa
T2 construct: Factor Xa; 0.2 μM in 50% glycerol (9.2 μg/mL)
T2 sequence (P00742 235-488 limits assumed): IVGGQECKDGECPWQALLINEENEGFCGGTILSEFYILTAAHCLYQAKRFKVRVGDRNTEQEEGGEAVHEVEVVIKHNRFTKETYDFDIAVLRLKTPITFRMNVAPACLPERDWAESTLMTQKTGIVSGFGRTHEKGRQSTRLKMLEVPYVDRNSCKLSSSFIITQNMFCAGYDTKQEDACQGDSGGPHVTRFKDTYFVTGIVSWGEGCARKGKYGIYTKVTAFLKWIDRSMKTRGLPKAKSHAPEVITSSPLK
T2 sequence (P00742 41-179 partner limits assumed): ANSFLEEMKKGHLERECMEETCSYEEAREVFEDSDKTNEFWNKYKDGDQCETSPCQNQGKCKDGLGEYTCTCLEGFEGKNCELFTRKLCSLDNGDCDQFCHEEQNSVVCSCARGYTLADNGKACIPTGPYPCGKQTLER
Experimental: as §1

Thrombin = molecular target: T3, Thrombin (Homo sapiens, UniProt P00734); assay: Dose response assay for protease inhibitors: thrombin (FXIa fold selectivity); type: biochemical; settings: fold selectivity for FXIa over thrombin
T3 construct: Thrombin; 0.2 μM in 50% glycerol (7.34 μg/mL)
Experimental: as §1

Trypsin = assay: Dose response assay for protease inhibitors: trypsin (FXIa fold selectivity); type: biochemical; settings: fold selectivity for FXIa over trypsin
Experimental: as §1

T1 sequence (P03951 388-625 limits assumed): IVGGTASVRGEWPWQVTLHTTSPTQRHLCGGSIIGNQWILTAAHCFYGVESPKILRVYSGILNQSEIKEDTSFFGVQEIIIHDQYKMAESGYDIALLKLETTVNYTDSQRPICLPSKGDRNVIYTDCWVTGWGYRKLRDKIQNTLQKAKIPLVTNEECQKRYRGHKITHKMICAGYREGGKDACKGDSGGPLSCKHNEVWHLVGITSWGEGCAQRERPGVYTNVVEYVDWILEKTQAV
T1 sequence (P03951 19-387 partner limits assumed): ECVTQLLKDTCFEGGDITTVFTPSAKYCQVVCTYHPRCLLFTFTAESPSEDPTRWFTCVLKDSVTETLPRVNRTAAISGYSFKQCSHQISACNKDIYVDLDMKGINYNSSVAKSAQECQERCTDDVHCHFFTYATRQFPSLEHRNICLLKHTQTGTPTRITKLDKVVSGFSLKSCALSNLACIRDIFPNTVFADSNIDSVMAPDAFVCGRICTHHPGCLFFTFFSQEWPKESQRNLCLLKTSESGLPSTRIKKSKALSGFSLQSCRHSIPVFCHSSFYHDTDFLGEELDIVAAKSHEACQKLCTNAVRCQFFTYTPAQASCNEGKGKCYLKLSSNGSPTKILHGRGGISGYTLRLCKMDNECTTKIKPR

In the case of `CC(C)[C@@H](C)NC(=O)N1C(=O)[C@H](Cc2ccnc(N)c2)[C@H]1C(=O)O` [Example 32], the IC50 (human Factor XIa) is reported as 10 to 100 nM, the half-life [1] is reported as greater than 1.67 h and the “FXIa Fold Selectivity FXa” value (Factor Xa) is reported as “G (“G” indicates 1-500)”. For the same molecule, the “FXIa Fold Selectivity Thrombin” value (Thrombin) was “G (“G” indicates 1-500)” and the “FXIa Fold Selectivity Trypsin” value (Trypsin) was “G (“G” indicates 1-500)”.
In the case of `CCO[C@@H]1[C@@H](Cc2ccnc(N)c2)C(=O)N1C(=O)NC(c1ccccc1)c1ccccc1` [Example 33], the IC50 (human Factor XIa) is reported as greater than 1000 nM, the half-life [1] is reported as greater than 1.67 h and the “FXIa Fold Selectivity FXa” value (Factor Xa) is reported as “F (“F” indicates <1)”. The “FXIa Fold Selectivity Thrombin” value (Thrombin) was “G (“G” indicates 1-500)” and the “FXIa Fold Selectivity Trypsin” value (Trypsin) was “G (“G” indicates 1-500)”.
In the case of `C[C@@H](NC(=O)N1C(=O)[C@H](Cc2ccnc(N)c2)[C@H]1C#N)c1ccccc1` [Example 34], the IC50 (human Factor XIa) is reported as less than 10 nM, the half-life [1] is reported as less than 1.67 h and the “FXIa Fold Selectivity FXa” value (Factor Xa) is reported as “I (“I” indicates >1000)”. The “FXIa Fold Selectivity Thrombin” value (Thrombin) was “I (“I” indicates >1000)” and the “FXIa Fold Selectivity Trypsin” value (Trypsin) was “G (“G” indicates 1-500)”.
For `CS(=O)(=O)[C@@H]1[C@@H](Cc2ccnc(N)c2)C(=O)N1C(=O)NC(c1ccccc1)c1ccccc1` [Example 35], the IC50 (human Factor XIa) was 100 to 1000 nM, the half-life [1] was less than 1.67 h and the “FXIa Fold Selectivity FXa” value (Factor Xa) was “G (“G” indicates 1-500)”. For the same molecule, the “FXIa Fold Selectivity Thrombin” value (Thrombin) was “G (“G” indicates 1-500)” and the “FXIa Fold Selectivity Trypsin” value (Trypsin) was “G (“G” indicates 1-500)”.
For `C[C@@H](NC(=O)N1C(=O)[C@H](Cc2ccnc(N)c2)[C@H]1S(C)(=O)=O)c1ccccc1` [Example 39], the IC50 (human Factor XIa) was 100 to 1000 nM, the half-life [1] was less than 1.67 h and the “FXIa Fold Selectivity FXa” value (Factor Xa) was “G (“G” indicates 1-500)”. The “FXIa Fold Selectivity Thrombin” value (Thrombin) was “G (“G” indicates 1-500)” and the “FXIa Fold Selectivity Trypsin” value (Trypsin) was “G (“G” indicates 1-500)”.
For `C[C@@H](NC(=O)N1C(=O)[C@H](Cc2ccnc(N)c2)[C@H]1C(=O)O)c1cccnc1` [Example 40], the IC50 (human Factor XIa) was 10 to 100 nM, the half-life [1] was greater than 1.67 h and the “FXIa Fold Selectivity FXa” value (Factor Xa) was “I (“I” indicates >1000)”. For the same molecule, the “FXIa Fold Selectivity Thrombin” value (Thrombin) was “I (“I” indicates >1000)” and the “FXIa Fold Selectivity Trypsin” value (Trypsin) was “I (“I” indicates >1000)”.
With `CC(NC(=O)N1C(=O)[C@H](Cc2ccnc(N)c2)[C@H]1C(=O)O)c1cccc(F)c1` (some centres unmarked) [Example 42] the IC50 (human Factor XIa) was less than 10 nM, the half-life [1] was greater than 1.67 h and the “FXIa Fold Selectivity FXa” value (Factor Xa) was “I (“I” indicates >1000)”. For the same molecule, the “FXIa Fold Selectivity Thrombin” value (Thrombin) was “I (“I” indicates >1000)” and the “FXIa Fold Selectivity Trypsin” value (Trypsin) was “H (“H” indicates 500-1000)”.
For `Nc1cc(C[C@H]2C(=O)N(C(=O)NCc3cccc4ccccc34)[C@@H]2C(=O)O)ccn1` [Example 43], the IC50 (human Factor XIa) was 10 to 100 nM, the half-life [1] was greater than 1.67 h and the “FXIa Fold Selectivity FXa” value (Factor Xa) was “G (“G” indicates 1-500)”. For the same molecule, the “FXIa Fold Selectivity Thrombin” value (Thrombin) was “G (“G” indicates 1-500)” and the “FXIa Fold Selectivity Trypsin” value (Trypsin) was “G (“G” indicates 1-500)”.
For `Nc1cc(C[C@H]2C(=O)N(C(=O)N[C@@H](c3ccccc3)C(F)(F)F)[C@@H]2C(=O)O)ccn1` [Example 44], the IC50 (human Factor XIa) was less than 10 nM, the half-life [1] was greater than 1.67 h and the “FXIa Fold Selectivity FXa” value (Factor Xa) was “I (“I” indicates >1000)”. For the same molecule, the “FXIa Fold Selectivity Thrombin” value (Thrombin) was “I (“I” indicates >1000)” and the “FXIa Fold Selectivity Trypsin” value (Trypsin) was “G (“G” indicates 1-500)”.
For `CC(NC(=O)N1C(=O)[C@H](Cc2ccnc(N)c2)[C@H]1C(=O)O)c1ccc(OC(F)(F)F)cc1` (some centres unmarked) [Example 47], the IC50 (human Factor XIa) was less than 10 nM, the half-life [1] was greater than 1.67 h and the “FXIa Fold Selectivity FXa” value (Factor Xa) was “I (“I” indicates >1000)”. For the same molecule, the “FXIa Fold Selectivity Thrombin” value (Thrombin) was “I (“I” indicates >1000)” and the “FXIa Fold Selectivity Trypsin” value (Trypsin) was “H (“H” indicates 500-1000)”.
In the case of `Nc1cc(C[C@H]2C(=O)N(C(=O)NCc3ccccc3)[C@@H]2C(=O)O)ccn1` [Example 48], the IC50 (human Factor XIa) is reported as 100 to 1000 nM, the half-life [1] is reported as greater than 1.67 h and the “FXIa Fold Selectivity FXa” value (Factor Xa) is reported as “G (“G” indicates 1-500)”. For the same molecule, the “FXIa Fold Selectivity Thrombin” value (Thrombin) was “G (“G” indicates 1-500)” and the “FXIa Fold Selectivity Trypsin” value (Trypsin) was “G (“G” indicates 1-500)”.
In the case of `C[C@@H](NC(=O)N1C(=O)[C@H](Cc2ccnc(N)c2)[C@H]1C(=O)O)c1cccc(OC(F)(F)F)c1` [Example 49], the IC50 (human Factor XIa) is reported as less than 10 nM, the half-life [1] is reported as greater than 1.67 h and the “FXIa Fold Selectivity FXa” value (Factor Xa) is reported as “H (“H” indicates 500-1000)”. The “FXIa Fold Selectivity Thrombin” value (Thrombin) was “I (“I” indicates >1000)” and the “FXIa Fold Selectivity Trypsin” value (Trypsin) was “G (“G” indicates 1-500)”.
With `CCCC(CCC)NC(=O)N1C(=O)[C@H](Cc2ccnc(N)c2)[C@H]1C(=O)O` [Example 52] the IC50 (human Factor XIa) was 10 to 100 nM, the half-life [1] was greater than 1.67 h and the “FXIa Fold Selectivity FXa” value (Factor Xa) was “H (“H” indicates 500-1000)”. For the same molecule, the “FXIa Fold Selectivity Thrombin” value (Thrombin) was “I (“I” indicates >1000)” and the “FXIa Fold Selectivity Trypsin” value (Trypsin) was “G (“G” indicates 1-500)”.
In the case of `CON=C[C@@H]1[C@@H](Cc2ccnc(N)c2)C(=O)N1C(=O)N[C@H](C)c1ccccc1` [Example 53], the IC50 (human Factor XIa) is reported as 10 to 100 nM, the half-life [1] is reported as less than 1.67 h and the “FXIa Fold Selectivity FXa” value (Factor Xa) is reported as “G (“G” indicates 1-500)”. The “FXIa Fold Selectivity Thrombin” value (Thrombin) was “G (“G” indicates 1-500)” and the “FXIa Fold Selectivity Trypsin” value (Trypsin) was “G (“G” indicates 1-500)”.
In the case of `CNC(=O)N1C(=O)[C@H](Cc2ccnc(N)c2)[C@H]1C(=O)O` [Example 55], the IC50 (human Factor XIa) is reported as greater than 1000 nM, the half-life [1] is reported as greater than 1.67 h and the “FXIa Fold Selectivity FXa” value (Factor Xa) is reported as “G (“G” indicates 1-500)”. For the same molecule, the “FXIa Fold Selectivity Thrombin” value (Thrombin) was “G (“G” indicates 1-500)” and the “FXIa Fold Selectivity Trypsin” value (Trypsin) was “G (“G” indicates 1-500)”.
With `C[C@@H](NC(=O)N1C(=O)[C@H](Cc2ccnc(N)c2)[C@H]1C(=O)O)c1ccc(F)c(F)c1` [Example 68] the IC50 (human Factor XIa) was less than 10 nM, the half-life [1] was greater than 1.67 h and the “FXIa Fold Selectivity FXa” value (Factor Xa) was “G (“G” indicates 1-500)”. The “FXIa Fold Selectivity Thrombin” value (Thrombin) was “I (“I” indicates >1000)” and the “FXIa Fold Selectivity Trypsin” value (Trypsin) was “I (“I” indicates >1000)”.
